Reference: patent US11667643B2, “RIP1K inhibitors” (priority 2020, dated 2023)
Read-outs that look alike come from different tables or passages of the source.

Experiments:
[1] = molecular target: RIPK1 (Homo sapiens (Human), UniProt Q13546); test: biochemical; format: biochemical
Outline: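 ADP-Glo luminescent assay of RIPK1 at 31 ng/well in Tris-HCl pH 7.4 buffer with MgCl2, BSA, 100 μM DTT and 4 mM MnCl2; compounds run in duplicate. Kinase reaction 30 min at 30 °C, then ADP-Glo 40 min and detection reagent 30 min at room temperature; ADP formation read as luminescence.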

[2] = system: L929 cells; test: L929 cell necroptosis assay (TNFa + zVAD, CellTiter-Glo recovery), functional murine RIP1 assay; format: cell-based; settings: Mus musculus, L929, 18 h, read-out: L929-CTG-recovery, L929, TNFa + zVAD (IC50), L929 cells, zVAD-fmk, TNFa 2 ng/mL, 18 hours, CellTiter-Glo
Outline: (§1)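 Human U937 cells (50K/well, 60 uM zVAD-fmk in plating medium) and murine L929 cells (10K/well, medium replaced with 40 uM zVAD-fmk) were pre-incubated with compound 1 h at 37 °C. TNFa was then added at a final 2 ng/mL. Viability by CellTiter-Glo luminescence after 18 h.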

[3] = system: U937 cells; test: U937 cell necroptosis assay (TNFa + zVAD, CellTiter-Glo recovery), functional human RIP1 assay; format: cell-based; settings: Homo sapiens, U-937, 18 h, read-out: U937 Zvad TNF CTG Recovery, U937, TNFa + zVAD (IC50), U937 cells, zVAD-fmk, TNFa 2 ng/mL, 18 hours, CellTiter-Glo
Outline: as §1

[4] = RIPK1 enzyme 31 ng/well, 30° C. for 30 minutes, luminescence, read-out: RIPK1 ADP-Glo Kinase (IC50)

RIPK1, sequence (Q13546 whole entry, species assumed): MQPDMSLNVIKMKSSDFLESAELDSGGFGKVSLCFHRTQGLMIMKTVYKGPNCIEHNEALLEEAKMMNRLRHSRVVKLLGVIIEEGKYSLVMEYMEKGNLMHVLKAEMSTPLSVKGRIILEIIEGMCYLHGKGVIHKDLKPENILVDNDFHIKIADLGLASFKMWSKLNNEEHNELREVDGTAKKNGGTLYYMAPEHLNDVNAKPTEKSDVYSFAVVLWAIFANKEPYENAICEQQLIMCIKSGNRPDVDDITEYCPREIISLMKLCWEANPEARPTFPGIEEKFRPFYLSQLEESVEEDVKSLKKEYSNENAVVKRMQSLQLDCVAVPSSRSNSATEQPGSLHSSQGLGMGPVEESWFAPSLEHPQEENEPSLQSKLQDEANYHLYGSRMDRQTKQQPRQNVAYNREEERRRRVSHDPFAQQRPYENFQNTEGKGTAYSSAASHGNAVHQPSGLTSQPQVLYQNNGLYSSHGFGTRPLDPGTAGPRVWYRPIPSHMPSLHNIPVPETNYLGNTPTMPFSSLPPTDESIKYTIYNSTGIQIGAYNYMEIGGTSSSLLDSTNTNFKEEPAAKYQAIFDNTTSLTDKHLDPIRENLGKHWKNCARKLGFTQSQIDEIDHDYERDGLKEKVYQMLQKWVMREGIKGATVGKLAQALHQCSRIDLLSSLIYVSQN

Compound	IC50 [1, 4] [µM]	IC50 [2] [µM]	IC50 [3] [µM]	IC50 [1] [µM]
O=C(N[C@H]1COc2ccccc2-n2c1noc2=O)c1cc(O)n(Cc2ccccc2)n1 [Compound I-75, 1-Benzyl-5-hydroxy-N-((4R)-1-oxo-4,5-dihydro-1H-benzo[b][1,2,4]oxadiazolo[4,3-d][1,4]oxazepin-4-yl)-1H-pyrazole-3-carboxamide]	10.6	10000	10000	–
O=C1c2nn(Cc3ccccc3)c(Cl)c2CN1[C@H]1COc2ccccc2-n2nnnc21 [Compound I-79]	0.652	10000	16.1	–
O=C(N[C@H]1CCc2ccc(N3CCC4(CCOCC4)CC3)cc2-n2ccnc21)c1n[nH]c(Cc2ccccc2)n1 [Compound I-83, (S)—N-(9-(3-Oxa-9-azaspiro[5.5]undecan-9-yl)-5,6-dihydro-4H-benzo[f]imidazo[1,2-a]azepin-4-yl)-5-benzyl-1H-1,2,4-triazole-3-carboxamide]	0.0435	2.12	0.0043	–
O=C(N[C@H]1CCc2ccc(N3CC4(CCOCC4)C3)cc2-n2ccnc21)c1n[nH]c(Cc2ccccc2)n1 [Compound I-86, (S)—N-(9-(7-Oxa-2-azaspiro[3.5]nonan-2-yl)-5,6-dihydro-4H-benzo[f]imidazo[1,2-a]azepin-4-yl)-5-benzyl-1H-1,2,4-triazole-3-carboxamide]	0.067	3.45	0.0119	–
O=C(N[C@H]1COc2ccc(N3CC4(CCOCC4)C3)cc2-n2ccnc21)c1n[nH]c(Cc2ccccc2)n1 [Compound I-87, (R)—N-(9-(7-Oxa-2-azaspiro[3.5]nonan-2-yl)-4,5-dihydrobenzo[b]imidazo[1,2-d][1,4]oxazepin-4-yl)-5-benzyl-1H-1,2,4-triazole-3-carboxamide]	–	10000	0.0156	0.0682
O=C(N[C@H]1COc2ccc(N3CC4(CCOCC4)C3)cc2-n2ccnc21)c1cc(Oc2ccccc2)ccn1 [Compound I-88, (R)—N-(9-(7-Oxa-2-azaspiro[3.5]nonan-2-yl)-4,5-dihydrobenzo[b]imidazo[1,2-d][1,4]oxazepin-4-yl)-4-phenoxypicolinamide]	0.112	10000	0.163	–
O=C(N[C@H]1COc2ccc(C#Cc3ccccn3)cc2-n2ccnc21)c1n[nH]c(Cc2ccccc2)n1 [Compound I-89, (R)-5-Benzyl-N-(9-(pyridin-2-ylethynyl)-4,5-dihydrobenzo[b]imidazo[1,2-d][1,4]oxazepin-4-yl)-1H-1,2,4-triazole-3-carboxamide]	0.108	7.93	0.0352	–
